Results published in US5045531A, “Wound treatment employing biologically active ion channel forming peptides and proteins” (Magainin Sciences Inc., priority 1989, dated 1991).
No end group written: not given here.

Key:
[1] = tested on: polyvinylchloride sponge disc implants (wound healing); assay: Wound breaking strength of rejoined sponge disc halves implanted in rats; format: in vivo, rat; details: at seven days, control group 440 g
From the text: (§1) Twenty-two male rats weighing between 300 g and 325 g were anesthetized, after which their backs and abdomens were shaved and washed with 70% ethanol. Three modified polyvinylchloride sponge discs 2 mm thick and 15 mm in diameter were implanted in each rat abdominally in subcutaneous pockets made under the skin. Two of the implants were cut in half and rejoined before the implantation, and the remaining disc was sandwiched between two silicone discs which forced granulation tissue infiltration to occur from the periphery of the disc. A single 15 mm×15 mm square full excision wound was made on the back and the wound edges tattooed.
(§2) The rats were then divided into four groups. A first, or control, group of four rats received sham injections daily. A second group of four rats received daily intramuscular injections of 10 mg of cortisone acetate. Cortisone is known to be an inhibitor of wound healing. A third group of seven rats received daily intramuscular injections of 0.3 mg of amide-terminated Magainin II. A fourth group of seven rats received daily intramuscular injections of 10 mg of cortisone acetate and 0.3 mg of Magainin II at separate sites. At seven days, rat weights were recorded, wound sizes measured, and the implants harvested. The staple which joined the two disc halves together was carefully removed and the breaking strength measured. Collagen content from the implant halves from each treatment group was measured by weighing the pepsin extracted native collagen. The sponge halves are homogenized in 0.5M ice-cold acetic acid containing 0.1 mg of pepsin per ml. The homogenate was stirred for 24 hours at 4° C., centrifuged, and supernatants saved. The native solubilized collagen was isolated by adding sodium chloride to 10 % w/v. The salt precipitate was collected by centrifugation (10,000× g for 10 min.) and then taken up in 145 mM potassium phosphate buffer pH7.6, exhaustively dialyzed against 1 mM HCl, lyophilized and its dry weight recorded. Confirmation of collagen purity was made by SDS polyacrylamide gel electrophoresis. […]

[2] = tested on: polyvinylchloride sponge disc implants (wound healing); assay: Collagen content of subcutaneous polyvinylchloride sponge disc implants in rats (pepsin extracted native collagen); format: in vivo, rat; details: at seven days, control group 3.43 mg/sponge
From the text: as §1, §2

full excision wound = assay: Wound contraction of 15 mm x 15 mm square full excision wound on the back of rats; format: in vivo, rat; details: for average wound contraction: at seven days, control group 67%
From the text: as §1
The rats were then divided into four groups. A first, or control, group of four rats received sham injections daily. A second group of four rats received daily intramuscular injections of 10 mg of cortisone acetate. Cortisone is known to be an inhibitor of wound healing. A third group of seven rats received daily intramuscular injections of 0.3 mg of amide-terminated Magainin II. A fourth group of seven rats received daily intramuscular injections of 10 mg of cortisone acetate and 0.3 mg of Magainin II at separate sites. At seven days, rat weights were recorded, wound sizes measured, and the implants harvested. The staple which joined the two disc halves together was carefully removed and the breaking strength measured. Collagen content from the implant halves from each treatment group was measured by weighing the pepsin extracted native collagen. The sponge halves are homogenized in 0.5M ice-cold acetic acid containing 0.1 mg of pepsin per ml. The homogenate was stirred for 24 hours at 4° C., centrifuged, and supernatants saved. The native solubilized collagen was isolated by adding sodium chloride to 10 % w/v. The salt precipitate was collected by centrifugation (10,000× g for 10 min.) and then taken up in 145 mM potassium phosphate buffer pH7.6, exhaustively dialyzed against 1 mM HCl, lyophilized and its dry weight recorded. Confirmation of collagen purity was made by SDS polyacrylamide gel electrophoresis. Pepsin digestion extracts only native collagen, needed for the formation of collagen fibers. The accumulations of collagen in the early stages of healing are responsible for gain in wound tensile strength. Collagen content from the implants taken from the group treated with cortisone acetate alone averged 0.82 mg/sponge, as compared with 3.43 mg/sponge for the control group.

[3] = tested on: cortisone inhibition of wound healing; details: antagonism of cortisone-inhibited wound healing; cited from earlier work
[4] = cortisone acetate alone, 10 mg daily intramuscular
[5] = 0.3 mg Magainin II plus 10 mg cortisone acetate daily intramuscular at separate sites
[6] = Magainin II alone, 0.3 mg daily intramuscular

Molecule: CC(=O)OCC(=O)[C@@]1(O)CC[C@H]2[C@@H]3CCC4=CC(=O)CC[C@]4(C)[C@H]3C(=O)C[C@@]21C [cortisone acetate]
- average wound breaking strength [1, 4]: 195 g
- average collagen content [2, 4]: 0.82 mg/sponge
- average wound contraction (full excision wound; [4]): 28%

Molecule: GIGKFLHSAKKFGKAFVGEIMNS-NH2 [Magainin II]
- average wound breaking strength [1, 5]: 320 g
- average wound breaking strength [1, 6]: 415 g
- average collagen content [2, 5]: 3.20 mg/sponge
- average collagen content [2, 6]: 3.82 mg/sponge
- average wound contraction (full excision wound; [5]): 53%
- average wound contraction (full excision wound; [6]): 65%
- effect on cortisone inhibition of wound healing (collagen deposition and wound contraction) (full excision wound; rats given cortisone acetate and Magainin II, conclusion in words): antagonistic of cortisone inhibition of wound healing

Molecule: Vitamin A
- restoring connective tissue deposition [3]: effective in restoring connective tissue deposition
- restoring wound contraction [3]: ineffective in restoring wound contraction

Molecule: growth hormone: other antagonist of cortisone inhibition of wound healing
- restoring connective tissue deposition [3]: effective in restoring connective tissue deposition
- restoring wound contraction [3]: ineffective in restoring wound contraction
